# Structures can show the parent of a compound that is named as a salt.
# Experiments:
# [1] = biological target: T1, wild type AXL (wtAXL) receptor tyrosine kinase (Homo sapiens, UniProt P30530); assay: NIH-3T3-AXL cellular tyrosine kinase assay (inhibition of AXL phosphorylation); assay type: cell-based; settings: AXL phosphorylation in NIH-3T3-AXL (clone 22) cells, serum-depleted, 2 h with compound, immunoprecipitation / anti-phosphotyrosine blot
# T1 construct: WtAXL cDNA was cloned into vector pLXSN(ESK) and transfected into Phoenix E packaging cells; expressed in transfected cells; host or cells: NIH3T3 N7 mouse fibroblasts, retrovirally infected (clone 22)
# T1 sequence (P30530 26-894): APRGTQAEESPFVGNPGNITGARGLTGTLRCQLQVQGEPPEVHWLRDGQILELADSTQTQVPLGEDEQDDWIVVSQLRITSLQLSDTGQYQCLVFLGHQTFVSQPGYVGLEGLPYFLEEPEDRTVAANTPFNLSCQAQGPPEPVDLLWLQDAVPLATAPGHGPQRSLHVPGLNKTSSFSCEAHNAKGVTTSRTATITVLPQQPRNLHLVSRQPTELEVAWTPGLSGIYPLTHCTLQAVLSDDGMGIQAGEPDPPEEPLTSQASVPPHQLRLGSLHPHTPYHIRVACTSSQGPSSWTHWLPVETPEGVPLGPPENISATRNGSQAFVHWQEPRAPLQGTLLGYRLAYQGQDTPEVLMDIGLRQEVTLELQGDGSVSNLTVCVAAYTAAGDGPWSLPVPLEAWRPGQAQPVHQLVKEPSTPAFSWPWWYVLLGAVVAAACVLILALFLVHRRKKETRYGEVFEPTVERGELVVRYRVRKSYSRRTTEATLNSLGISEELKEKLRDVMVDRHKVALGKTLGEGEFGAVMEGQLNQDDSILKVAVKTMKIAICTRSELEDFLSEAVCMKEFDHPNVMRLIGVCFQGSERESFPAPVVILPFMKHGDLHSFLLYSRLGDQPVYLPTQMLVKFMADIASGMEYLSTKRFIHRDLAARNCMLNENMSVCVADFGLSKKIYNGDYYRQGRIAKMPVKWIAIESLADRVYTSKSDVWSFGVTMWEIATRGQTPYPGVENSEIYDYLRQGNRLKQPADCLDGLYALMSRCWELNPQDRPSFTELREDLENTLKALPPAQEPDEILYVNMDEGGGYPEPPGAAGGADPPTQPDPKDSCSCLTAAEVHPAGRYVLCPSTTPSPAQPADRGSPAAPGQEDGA
# Method: 3) Inhibitory Activity of Compounds on Axl Phosphorylation in NIH-3T3-AXL Cellular Tyrosine Kinase Assay
# The viral supernatant was collected and used to infect target cells NIH3T3 N7. Monoclonal NIH3T3-AXL cell lines stably expressing wtAXL were generated by selecting retrovirally infected cells in medium containing puromycin (2 μg/ml) and subsequent clonal separation.
# NIH-3T3-AXL Cellular Kinase Assay
# Serial dilutions of compounds were added, and the cells were further incubated or 2 h. […] The clarified cell lysate (10 min at 13000 rpm at 4° C.) were used for immunoprecipitation. Equal amounts of protein were mixed with 2 μg anti-AXL polyclonal antibody (homemade) and 20 μl Protein A sepharose beads, and rotated for 6 hr at 4° C. After immunoprecipitation, the beads were washed three times with 1×HNTG (50 mM HEPES (pH 7.5), 150 mM NaCl, 10% Glycerol, 0.2% Triton X-100). The final pellet was suspended in 20 μl 2× Laemmli buffer, and boiled for 5 min at 100° C. […] The membrane was then incubated with anti-phosphotyrosine antibody (4G10) overnight at 4° C. followed by washing with 1×TBST buffer three times. After incubating membrane with HRP-conjugated anti-mouse secondary antibody for 1 hour at room temperature followed by washing with 1×TBST buffer three times, the proteins were visualized by ECL.
smiles,measurement,setting,value
"COc1cc2nccc(Oc3ccc(NS(=O)(=O)c4cccc(C#N)c4)c(F)c3)c2cc1OC [Example A1, 3-Cyano-N-[4-(6,7-dimethoxy-quinolin-4-yloxy)-2-fluoro-phenyl]-benzenesulfonamide]",melting point,,223 to 224 °C
same,IC50,[1],4500 nM
"COc1cc2nccc(Oc3ccc(NS(=O)(=O)c4ccc(F)c(F)c4)c(F)c3)c2cc1OC [Example A3, N-[4-(6,7-Dimethoxy-quinolin-4-yloxy)-2-fluoro-phenyl]-3,4-difluoro-benzenesulfonamide]",melting point,,217 to 219 °C
same,IC50,[1],3400 nM
COc1cc2nccc(Oc3ccc(NS(=O)(=O)c4cccs4)c(F)c3)c2cc1OC [Example A4],melting point,,214 to 216 °C
same,IC50,[1],6000 nM
"COc1cc2nccc(Oc3ccc(NS(=O)(=O)c4cc(Cl)cc(Cl)c4O)c(F)c3)c2cc1OC [Example A5, 3,5-Dichloro-N-[4-(6,7-dimethoxy-quinolin-4-yloxy)-2-fluoro-phenyl]-2-hydroxy-benzenesulfonamide]",melting point,,232 to 234 °C
same,IC50,[1],500 nM
"COc1cc2nccc(Oc3ccc(NS(=O)(=O)c4ccc(C)c(F)c4)c(F)c3)c2cc1OC [Example A6, N-[4-(6,7-Dimethoxy-quinolin-4-yloxy)-2-fluoro-phenyl]-3-fluoro-4-methyl-benzenesulfonamide]",melting point,,211 to 212 °C
same,IC50,[1],4300 nM
"COc1cc2nccc(Oc3ccc(NS(=O)(=O)c4sc(NC(C)=O)cc4C)c(F)c3)c2cc1OC [Example A7, N-{5-[4-(6,7-Dimethoxy-quinolin-4-yloxy)-2-fluoro-phenylsulfamoyl]-4-methyl-thiophen-2-yl}-acetamide]",melting point,,133 to 135 °C
same,IC50,[1],> 10000 nM
"COC(=O)c1sccc1S(=O)(=O)Nc1ccc(Oc2ccnc3cc(OC)c(OC)cc23)cc1F [Example A9, 3-[4-(6,7-Dimethoxy-quinolin-4-yloxy)-2-fluoro-phenylsulfamoyl]-thiophene-2-carboxylic acid methyl ester]",melting point,,189 to 190 °C
same,IC50,[1],3700 nM
"COc1cc2nccc(Oc3ccc(NS(=O)(=O)c4ccc(Br)c(F)c4)c(F)c3)c2cc1OC [Example A11, 4-Bromo-N-[4-(6,7-dimethoxy-quinolin-4-yloxy)-2-fluoro-phenyl]-3-fluoro-benzenesulfonamide]",melting point,,209 to 211 °C
same,IC50,[1],2260 nM
"COc1cc2nccc(Oc3ccc(NS(=O)(=O)c4ccc(F)c(Cl)c4)c(F)c3)c2cc1OC [Example A12, 3-Chloro-N-[4-(6,7-dimethoxy-quinolin-4-yloxy)-2-fluoro-phenyl]-4-fluoro-benzenesulfonamide]",melting point,,208 to 210 °C
same,IC50,[1],1260 nM
"COc1cc2nccc(Oc3ccc(NS(=O)(=O)c4ccc(Cl)cc4F)c(F)c3)c2cc1OC [Example A13, 4-Chloro-N-[4-(6,7-dimethoxy-quinolin-4-yloxy)-2-fluoro-phenyl]-2-fluoro-benzenesulfonamide]",melting point,,218 to 219 °C
same,IC50,[1],2900 nM
"COc1cc2nccc(Oc3ccc(NS(=O)(=O)c4c(F)cccc4F)c(F)c3)c2cc1OC [Example A14, N-[4-(6,7-Dimethoxy-quinolin-4-yloxy)-2-fluoro-phenyl]-2,6-difluoro-benzenesulfonamide]",melting point,,223 to 225 °C
same,IC50,[1],1400 nM
"COc1cc2nccc(Oc3ccc(NS(=O)(=O)c4cccc(OC(F)F)c4)c(F)c3)c2cc1OC [Example A15, 3-Difluoromethoxy-N-[4-(6,7-dimethoxy-quinolin-4-yloxy)-2-fluoro-phenyl]-benzenesulfonamide]",melting point,,238 to 239 °C
same,IC50,[1],2260 nM
"COc1cc2nccc(Oc3ccc(NS(=O)(=O)/C=C/c4ccccc4)c(F)c3)c2cc1OC [Example A16, 2-Phenyl-ethenesulfonic acid [4-(6,7-dimethoxy-quinolin-4-yloxy)-2-fluoro-phenyl]-amide]",melting point,,224 to 225 °C
same,IC50,[1],1810 nM
"COc1cc2nccc(Oc3ccc(NS(=O)(=O)c4cccc5ccccc45)c(F)c3)c2cc1OC [Example A17, Naphthalene-1-sulfonic acid [4-(6,7-dimethoxy-quinolin-4-yloxy)-2-fluoro-phenyl]-amide]",melting point,,243 to 245 °C
same,IC50,[1],890 nM
"COc1cc2nccc(Oc3ccc(NS(=O)(=O)c4cc(Cl)sc4Cl)c(F)c3)c2cc1OC [Example A18, 2,5-Dichloro-thiophene-3-sulfonic acid [4-(6,7-dimethoxy-quinolin-4-yloxy)-2-fluoro-phenyl]-amide]",melting point,,223 to 225 °C
same,IC50,[1],2100 nM
"COc1cc2nccc(Oc3ccc(NS(=O)(=O)c4ccc(Br)c(C)c4)c(F)c3)c2cc1OC [Example A19, 4-Bromo-N-[4-(6,7-dimethoxy-quinolin-4-yloxy)-2-fluoro-phenyl]-3-methyl-benzenesulfonamide]",melting point,,199 to 201 °C
same,IC50,[1],4500 nM
"COc1cc2nccc(Oc3ccc(NS(=O)(=O)c4ccc(F)c(F)c4F)c(F)c3)c2cc1OC [Example A20, N-[4-(6,7-Dimethoxy-quinolin-4-yloxy)-2-fluoro-phenyl]-2,3,4-trifluoro-benzenesulfonamide]",melting point,,188 to 190 °C
same,IC50,[1],5050 nM
"COc1cc2nccc(Oc3ccc(NS(=O)(=O)c4ccc(C)s4)c(F)c3)c2cc1OC [Example A21, 5-Methyl-thiophene-2-sulfonic acid [4-(6,7-dimethoxy-quinolin-4-yloxy)-2-fluoro-phenyl]-amide]",melting point,,218 to 220 °C
same,IC50,[1],4700 nM
"COc1cc2nccc(Oc3ccc(NS(=O)(=O)c4ccco4)c(F)c3)c2cc1OC [Example A22, Furan-2-sulfonic acid [4-(6,7-dimethoxy-quinolin-4-yloxy)-2-fluoro-phenyl]-amide]",melting point,,210 to 212 °C
same,IC50,[1],9600 nM
"COc1cc2nccc(Oc3ccc(NS(=O)(=O)c4cccc(Br)c4)c(F)c3)c2cc1OC [Example A24, 3-Bromo-N-[4-(6,7-dimethoxy-quinolin-4-yloxy)-2-fluoro-phenyl]-benzenesulfonamide]",melting point,,255 to 257 °C
same,IC50,[1],2400 nM
"COc1cc2nccc(Oc3ccc(NS(=O)(=O)c4ccc(Cl)cc4F)cc3OC)c2cc1OC [Example A141, 4-Chloro-N-[4-(6,7-dimethoxy-quinolin-4-yloxy)-3-methoxy-phenyl]-2-fluoro-benzenesulfonamide]",IC50,[1],> 10000 nM
"COc1cc2c(Oc3ccc(NS(=O)(=O)c4cccc5ccccc45)cc3F)ccnc2cc1OCCCN [Example D02, Naphthalene-1-sulfonic acid {4-[7-(3-amino-propoxy)-6-methoxy-quinolin-4-yloxy]-3-fluoro-phenyl}-amide hydrochloride]",IC50,[1],695 nM
"COc1cc2c(Oc3ccc(NS(=O)(=O)c4cccc(-c5ccccc5)c4)cc3F)ccnc2cc1OCCCN [Example D03, Biphenyl-3-sulfonic acid {4-[7-(3-amino-propoxy)-6-methoxy-quinolin-4-yloxy]-3-fluoro-phenyl}-amide hydrochloride]",IC50,[1],837 nM
"COc1cc2c(Oc3ccc(NS(=O)(=O)c4ccccc4OC(F)(F)F)cc3F)ccnc2cc1OCCCN [Example D15, N-{4-[7-(3-Amino-propoxy)-6-methoxy-quinolin-4-yloxy]-3-fluoro-phenyl}-2-trifluoromethoxy-benzenesulfonamide hydrochloride]",IC50,[1],364 nM
"COc1cc2c(Oc3ccc(NS(=O)(=O)c4ccccc4Br)cc3F)ccnc2cc1OCCCN1CCOCC1 [Example D49, 2-Bromo-N-{3-fluoro-4-[6-methoxy-7-(3-morpholin-4-yl-propoxy)-quinolin-4-yloxy]-phenyl}-benzenesulfonamide]",melting point,,185 to 188 °C

# From patent US9206130B2, “Quinoline derivatives as AXL kinase inhibitors” (Max-Planck-Gesellschaft zur Förderung der Wissenschaften …, priority 2008, dated 2015)
